Results reported in ChEMBL document CHEMBL5500372, “Novel natural osthole-inspired amphiphiles as membrane targeting antibacterials against methicillin-resistant Staphylococcus aureus (MRSA)” (Eur J Med Chem, 2024).
The source made the active and inactive calls. The calls are words filed in the database; no cut-off is given here.

Tests used:
[1] = Toxicity in female KM mouse skin abscess model infected with methicillin-resistant Staphylococcus aureus clinical isolate 16 assessed as effect on lung at 5 to 10 mg/kg, sc measured after 24 hrs by H and E staining based analysis; format: organism-based; conditions: in vivo, dose 5-10 mg/kg
[2] = Toxicity in female KM mouse assessed as effect on albumin at upto 20 mg/kg, sc measured after 24 hrs by biochemical test; format: organism-based; conditions: in vivo
[3] = Toxicity in female KM mouse skin abscess model infected with methicillin-resistant Staphylococcus aureus clinical isolate 16 assessed as effect on liver at 5 to 10 mg/kg, sc measured after 24 hrs by H and E staining based analysis; format: organism-based; conditions: in vivo, dose 5-10 mg/kg
Staphylococcus aureus [4] = assay: Antibacterial activity against methicillin-resistant Staphylococcus aureus clinical isolate 16 measured after 18 hrs in presence of cardiolipin by checkerboard broth dilution method; format: functional, organism-based
[5] = Toxicity in female KM mouse assessed as effect on red blood cell at upto 20 mg/kg, sc measured after 24 hrs; format: organism-based; conditions: in vivo
Staphylococcus aureus [6] = assay: Antibacterial activity against methicillin-resistant Staphylococcus aureus clinical isolate 16 infected in female KM mouse skin abscess model assessed as reduction in number of MRSA cells at 5 to 10 mg/kg, sc measured after 24 hrs; format: functional, organism-based; conditions: dose 5-10 mg/kg
[7] = Toxicity in female KM mouse skin abscess model infected with methicillin-resistant Staphylococcus aureus clinical isolate 16 assessed as histological abnormalities in spleen at 5 to 10 mg/kg, sc measured after 24 hrs by H and E staining based analysis; format: organism-based; conditions: in vivo, dose 5-10 mg/kg
[8] = Toxicity in female KM mouse assessed as swelling in skin at 40 to 80 mg/kg, sc measured after 24 hrs; format: organism-based; conditions: in vivo, dose 40-80 mg/kg
Cell membrane [9] = assay: Induction of cytoplasmic membrane permeabilization in methicillin-resistant Staphylococcus aureus clinical isolate 16 assessed as increase in fluorescence intensity at 8 to 32 time MIC measured for 10 mins by SYTOX green dye based fluorescence analysis; format: cell membranes
Escherichia coli = assay: Antibacterial activity against Escherichia coli ATCC 25922 measured after 18 hrs by CLSI based broth microdilution method; format: functional
Cell membrane [10] = assay: Induction of cytoplasmic membrane depolarization in methicillin-resistant Staphylococcus aureus clinical isolate 16 assessed as fold increase in fluorescence intensity at 32 time MIC measured after 35 mins by DiSC3-5 dye based fluorescence method
Staphylococcus aureus [11] = assay: Antibacterial activity against methicillin-resistant Staphylococcus aureus clinical isolate 16 infected in female KM mouse skin abscess model assessed as log reduction in bacterial load at 5 mg/kg, sc measured after 24 hrs (reference value: 8.508 log10CFU/g); format: functional
[12] = Toxicity in female KM mouse assessed as effect on heart at 20 mg/kg, sc measured after 24 hrs by H and E staining based analysis; format: organism-based; conditions: in vivo
Staphylococcus aureus [13] = assay: Antibacterial activity against methicillin-resistant Staphylococcus aureus clinical isolate 16 measured after 18 hrs by CLSI based broth microdilution method; format: functional
Staphylococcus aureus [14] = assay: Antibacterial activity against methicillin-resistant Staphylococcus aureus clinical isolate 16 infected in female KM mouse skin abscess model assessed as reduction in IL-6 level at 5 to 10 mg/kg, sc measured after 24 hrs by ELISA method; format: functional, organism-based; conditions: dose 5-10 mg/kg
Staphylococcus aureus [15] = assay: Antibacterial activity against Staphylococcus aureus ATCC 29213 measured after 18 hrs by CLSI based broth microdilution method; format: functional
Staphylococcus aureus [16] = assay: Antibacterial activity against methicillin-resistant Staphylococcus aureus clinical isolate 16 infected in female KM mouse skin abscess model assessed as reduction in infiltration of inflammatory cells in dermis at 10 mg/kg, sc measured after 24 hrs by H and E staining based analysis; format: functional, organism-based
[17] = Hemolytic activity in sheep erythrocyte assessed as hemolysis incubated for 1 hr by absorbance based analysis; format: toxicity, cell-based, Ovis aries; conditions: sheep erythrocytes
[18] = Toxicity in female KM mouse assessed as effect on mean corpuscular volume at upto 20 mg/kg, sc measured after 24 hrs; format: organism-based; conditions: in vivo
Staphylococcus aureus [19] = assay: Antibacterial activity against methicillin-resistant Staphylococcus aureus clinical isolate 16 infected in female KM mouse skin abscess model assessed as effect on abscess in back skin at 5 mg/kg, sc measured after 24 hrs; format: functional, organism-based
[20] = Toxicity in female KM mouse assessed as animal death at 80 mg/kg, sc measured after 24 hrs; format: organism-based; conditions: in vivo
Staphylococcus aureus [21] = assay: Antibacterial activity against methicillin-resistant Staphylococcus aureus clinical isolate 16 measured after 18 hrs in presence of phosphatidylglycerol by checkerboard broth dilution method; format: functional
Staphylococcus aureus [22] = assay: Antibacterial activity against methicillin-resistant Staphylococcus aureus clinical isolate 13 measured after 18 hrs by CLSI based broth microdilution method; format: functional
Staphylococcus aureus [23] = assay: Antibacterial activity against methicillin-resistant Staphylococcus aureus clinical isolate 11 measured after 18 hrs by CLSI based broth microdilution method; format: functional
[24] = Toxicity in female KM mouse skin abscess model infected with methicillin-resistant Staphylococcus aureus clinical isolate 16 assessed as histological abnormalities in lung at 5 to 10 mg/kg, sc measured after 24 hrs by H and E staining based analysis; format: organism-based; conditions: in vivo, dose 5-10 mg/kg
Staphylococcus aureus [25] = assay: Bactericidal activity against Staphylococcus aureus ATCC 29213 assessed as eradication of bacteria at 8 times MIC measured after 4 hrs by time-kill assay relative to control; format: functional
Cell membrane [26] = assay: Disruption of cell membrane in methicillin-resistant Staphylococcus aureus clinical isolate 16 assessed as appearance of broken surface at 16 ug/ml measured after 4 hrs by SEM analysis; format: cell membranes; conditions: dose 16.0 µg/ml

## CCCCCCNC(=O)C[N+](C)(C)CCCCCOc1ccc2ccc(=O)oc2c1CC=C(C)C.[Br-]
[1]
  Activity: Non-Toxic
[2]
  Activity: Non-Toxic
[3]
  Activity: Non-Toxic
Staphylococcus aureus [4]
  Activity: Active
[5]
  Activity: Non-Toxic
Staphylococcus aureus [6]
  Activity: Active
[7]
  Activity: Non-Toxic
[8]
  Activity: Toxic
Cell membrane [9]
  Activity: Active
Escherichia coli
  MIC: 32 µg/mL
Cell membrane [10]
  fold change (FC): 5
Staphylococcus aureus [11]
  Activity: 2.962 log10CFU/g
[12]
  Activity: Non-Toxic
Staphylococcus aureus [13]
  MIC: 1 µg/mL
Staphylococcus aureus [14]
  Activity: Active
Staphylococcus aureus [15]
  MIC: 1 µg/mL
Staphylococcus aureus [16]
  Activity: Active
[17]
  HC50 at 1 h: 1040 µg/mL
[18]
  Activity: Non-Toxic
Staphylococcus aureus [19]
  Activity: Active
[20]
  Activity: Non-Toxic
Staphylococcus aureus [21]
  MIC: 64 µg/mL
Staphylococcus aureus [22]
  MIC: 2 µg/mL
Staphylococcus aureus [23]
  MIC: 1 µg/mL
[24]
  Activity: Non-Toxic
Staphylococcus aureus [25]
  Activity: 100%
Cell membrane [26]
  Activity: Active
